# Test results reported in patent publication US20230022235A1, “DUAL ANDROGEN RECEPTOR/AKR1C3 INHIBITORS” (The Regents of the University of California, priority 2019, published 2023).
# Entries after “also recorded” stand apart in the source; their conditions may differ.
# What was measured:
# LuCaP35CR tumors = assay: LuCaP35CR PDX model in castrated SCID mice; format: in vivo
# Procedure: The LuCaP35CR PDX model was also employed to investigate the effects of compound 1 in vivo. For this model, SCID mice were castrated and implanted with LuCaP35CR tissues. Once tumors were palpable, mice were divided into two groups: control or 20 mg/kg compound 1 administered I.P. 5 days a week for 3 weeks. Tumor volumes were measured twice weekly and mouse weights were monitored. At the end of treatment, tumors and serum were collected for assessment.
# AR-V7 = assay: RNAseq of AR-V7 signature genes in C4-2B MDVR cells; format: cell-based; details: 5 μM, vs DMSO control
# Procedure: (§1) Next, the effects of the new AR/AKR1C3 inhibitors on AR signaling were studied. […] To further confirm the inhibitory role of the compounds in AR signaling, enzalutamide resistant C4-2B MDVR cells (which have enhanced expression of AR, AR variants, and AKR1C3) were treated with 5 μM compound 1, 5 μM compound 5, or a DMSO control. Total RNA was isolated assessed using RNAseq.
# AKR1C3 [1] = target: T1, AKR1C3 (Homo sapiens, UniProt P42330); assay: Aldo-Keto Reductase (AKR) Activity Assay Kit (Colorimetric) in LNCaP-AKR1C3 cells; format: cell-based; set-up: expressed in transfected cells; host or cells: LNCaP-AKR1C3; details: 48 hrs
# T1 sequence (P42330 1-323): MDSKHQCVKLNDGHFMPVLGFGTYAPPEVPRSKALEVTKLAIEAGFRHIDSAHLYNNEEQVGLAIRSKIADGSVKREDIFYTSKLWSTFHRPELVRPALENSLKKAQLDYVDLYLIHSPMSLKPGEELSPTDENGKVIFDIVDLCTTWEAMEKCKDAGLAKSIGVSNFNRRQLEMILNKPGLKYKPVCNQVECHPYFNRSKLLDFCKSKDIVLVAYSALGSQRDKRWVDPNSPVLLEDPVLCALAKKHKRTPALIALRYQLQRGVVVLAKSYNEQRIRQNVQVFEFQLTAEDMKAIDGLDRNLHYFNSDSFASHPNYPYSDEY
# Procedure: To examine whether compound 1 and compound 2 are useful in inhibiting AKR1C3 activity, LNCaP-AKR1C3 were treated with either compound 1 or compound 2 for 48 hrs. AKR1C3 enzymatic activity was determined by Aldo-Keto Reductase (AKR) Activity Assay Kit (Colorimetric), the results of which are shown in FIG. 2. Similarly, the inhibition of AKR1C3 activity was examined with varying doses of compound 1. LNCaP-AKR1C3 cells were treated with increasing doses of compound 1 for 48 hrs.
# AR [2] = target: T2, AR (Homo sapiens, UniProt P10275, T878A); assay: DHT-stimulated AR nuclear translocation in LNCaP cells (immunofluorescent staining); format: cell-based; details: charcoal stripped FBS
# T2 construct: endogenous in cells; host or cells: LNCaP
# T2 sequence (P10275 1-920 T878A): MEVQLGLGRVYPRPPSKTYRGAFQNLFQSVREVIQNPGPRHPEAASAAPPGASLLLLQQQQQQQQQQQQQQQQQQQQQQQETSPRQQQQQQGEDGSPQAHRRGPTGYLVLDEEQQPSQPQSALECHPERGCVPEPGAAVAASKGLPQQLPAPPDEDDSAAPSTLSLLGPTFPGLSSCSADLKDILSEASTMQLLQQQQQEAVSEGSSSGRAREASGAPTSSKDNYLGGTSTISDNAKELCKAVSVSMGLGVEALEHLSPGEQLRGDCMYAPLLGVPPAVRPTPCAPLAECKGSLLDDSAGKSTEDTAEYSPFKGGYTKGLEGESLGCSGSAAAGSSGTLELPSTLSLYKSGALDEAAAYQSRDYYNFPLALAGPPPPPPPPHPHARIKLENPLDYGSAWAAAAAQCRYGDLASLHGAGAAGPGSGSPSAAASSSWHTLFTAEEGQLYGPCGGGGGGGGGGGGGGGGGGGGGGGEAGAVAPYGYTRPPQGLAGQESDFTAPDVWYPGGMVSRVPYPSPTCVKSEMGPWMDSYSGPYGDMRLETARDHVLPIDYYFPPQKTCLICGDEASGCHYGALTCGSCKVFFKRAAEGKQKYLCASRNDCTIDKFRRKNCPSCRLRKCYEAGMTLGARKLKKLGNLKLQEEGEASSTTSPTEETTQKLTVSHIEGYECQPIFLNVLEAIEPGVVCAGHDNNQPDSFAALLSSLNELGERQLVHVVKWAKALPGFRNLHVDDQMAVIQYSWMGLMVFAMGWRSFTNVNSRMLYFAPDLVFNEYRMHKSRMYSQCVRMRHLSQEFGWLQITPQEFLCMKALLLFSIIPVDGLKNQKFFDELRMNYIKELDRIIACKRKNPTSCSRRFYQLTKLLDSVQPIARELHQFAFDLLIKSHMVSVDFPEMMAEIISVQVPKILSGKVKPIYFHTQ
# Procedure: LNCaP cells cultured in charcoal stripped FBS conditions were treated with DHT and the compounds as indicated. AR expression were visualized by immunofluorescent staining.
# as §1
# AKR1C3 [3] = target: T1, AKR1C3; assay: Ex vivo tumor based AKR1C3 enzyme assay (androstenedione conversion to testosterone); format: cell-based; details: ex vivo tumors, androstenedione 300 nmol/L, testosterone in supernatants
# Procedure: AKR1C3 plays a crucial role in the synthesis of testosterone, by catalyzing the conversion of the adrenal androgens dehydroepiandrosterone (DHEA) and androstenedione (AD) into testosterone. To determine the effects of compound 1 on inhibition of AKR1C3 enzymatic activity an ex vivo tumor based AKR1C3 enzyme assay was conducted. LUCaP35CX tumors, which express high levels of AKR1C3, were digested with 0.1% protease and cultured in medium supplemented with 10% heat-inactivated charcoal-dextran-stripped FBS. After overnight incubation, androstenedione (300 nmol/L) was added with or without compound 1. The supernatants were collected to measure testosterone.
# AR [4] = assay: RNAseq of AR signaling genes in C4-2B MDVR cells; format: cell-based; details: 5 μM, vs DMSO control
# Procedure: as §1
# VCaP tumors = assay: VCaP tumor model in intact SCID mice; format: in vivo; details: 20 mg/kg I.P. 5 days a week for 3 weeks
# Procedure: Next the effects of compound 1 in vivo were studied in two separate models. First, intact SCID mice were injected with resistant prostate cancer VCaP cells suspended in matrigel. Once tumors were palpable, mice were divided into two groups: control or 20 mg/kg compound 1 administered I.P. 5 days a week for 3 weeks. Tumor volumes were measured twice weekly and mouse weights were monitored. At the end of treatment, tumors and serum were collected for assessment.
# C4-2B MDVR cells [5] = assay: RNAseq of genes associated with cancer cell proliferation and survival in C4-2B MDVR cells; format: cell-based; details: 5 μM, vs DMSO control
# Procedure: In addition, the effect of the compounds on the expression of genes involved in cancer was studied. Enzalutamide resistant C4-2B MDVR cells were treated with 5 μM of compound 1, 2, 5, or 8, or DMSO control.
# [6] = test system: MCF-7 breast cancer cells; assay: Cell number of MCF-7 breast cancer cells; format: cell-based; details: 48 hrs
# C4-2B MDVR cells [7] = assay: Cell number of enzalutamide-resistant C4-2B MDVR cells; format: cell-based; details: 48 hrs
# Procedure: C4-2B MDVR cells were treated with increasing doses of compound 1 for 48 hrs.
# To evaluate whether compound 1 is an effective inhibitor of anti-androgen resistant cell growth, a series of resistant cells were treated with their respective anti-androgens for 48 hrs. Enzalutamide resistant MDVR cells, abiraterone resistant AbiR cells, apalutamide resistant ApaIR cells, and darolutamide resistant DaroR cells were treated with their respective anti-androgens: enza (20 μM), abi (20 μM), apal (20 μM), darolutamide (20 μM), or compound 1 (5 μM).
# [8] = LuCaP35CR PDX, castrated SCID mice, 20 mg/kg I.P. 5 days a week for 3 weeks
SMILES,intratumoral testosterone levels (LuCaP35CR tumors; [8]),mouse body weight (LuCaP35CR tumors; [8]),serum PSA (LuCaP35CR tumors; [8]),"tumor volume / tumor growth (LuCaP35CR tumors; LuCaP35CR PDX, castrated SCID mice, 20 mg/kg I.P. 5 days a week for 3 weeks, 20 mg/kg)","tolerability (LuCaP35CR tumors; conclusion from VCaP and LuCaP35CR mouse models, 20 mg/kg I.P.)",expression of AR-V7 signature genes (AR-V7),AKR1C3 enzymatic activity (AKR1C3 [1]),"AKR1C3 enzymatic activity, increasing doses (AKR1C3 [1]; increasing doses)",AR nuclear translocation / DHT-stimulated AR nuclear expression (AR [2]),androstenedione conversion to testosterone (AKR1C3 [3]),expression of genes associated with AR signaling (AR activity signature genes) (AR [4]),serum PSA (VCaP tumors; end of treatment),mouse body weight (VCaP tumors; vs control),"tumor volume / tumor growth (VCaP tumors; vs control, 20 mg/kg)",expression of genes associated with cancer cell proliferation and survival (C4-2B MDVR cells [5]),"total cell number (cell growth), increasing doses [6]",total cell number (cell growth) (C4-2B MDVR cells [7]),"total cell number (cell growth), increasing doses (C4-2B MDVR cells [7]; increasing doses)"
"O=C(Nc1cc(C(F)(F)F)cc(C(F)(F)F)c1)c1cc(Cc2ccccc2)ccc1O [compound 1, 5-benzyl-N-(3,5-bis(trifluoromethyl)phenyl)-2-hydroxybenzamide]",significantly reduced intratumoral testosterone levels,no effect on mouse body weight,reduced,significantly decreased tumor volumes; also recorded: inhibits LuCaP35CR tumor growth,well-tolerated,reduced expression of AR-V7 signature genes; also recorded: inhibit AR-V7 activity signature genes,inhibit AKR1C3 activity,inhibited in dose-dependent fashion,capable of inhibiting DHT-stimulated AR nuclear expression; also recorded: inhibit AR nuclear translocation,dose-dependent inhibition; also recorded: inhibits the conversion from androstenedione to testosterone,greatly reduced expression of genes associated with AR signaling; also recorded: inhibit AR activity signature genes,significantly decreased,no effect on mouse body weight,significantly decreased tumor volume; also recorded: inhibits VCaP tumor growth,greatly reduced expression of genes associated with cancer cell proliferation and survival; also recorded: inhibit genes associated with cancer cell proliferation and survival,inhibited in dose dependent fashion,inhibit cell growth,inhibited in dose-dependent fashion
"COc1ccc(Cc2ccc(O)c(C(=O)Nc3cc(C(F)(F)F)cc(C(F)(F)F)c3)c2)cc1 [compound 5, N-(3,5-bis(trifluoromethyl)phenyl)-2-hydroxy-5-(4-methoxybenzyl)benzamide]",–,–,–,–,–,reduced expression of AR-V7 signature genes; also recorded: inhibit AR-V7 activity signature genes,–,–,capable of inhibiting DHT-stimulated AR nuclear expression; also recorded: inhibit AR nuclear translocation,–,greatly reduced expression of genes associated with AR signaling; also recorded: inhibit AR activity signature genes,–,–,–,greatly reduced expression of genes associated with cancer cell proliferation and survival; also recorded: inhibit genes associated with cancer cell proliferation and survival,–,–,–
"COc1ccc(C(=O)c2ccc(O)c(C(=O)Nc3cc(C(F)(F)F)cc(C(F)(F)F)c3)c2)cc1 [compound 8, N-(3,5-Bis(trifluoromethyl)phenyl)-2-hydroxy-5-(4-methoxybenzoyl)benzamide]",–,–,–,–,–,–,–,–,–,–,–,–,–,–,greatly reduced expression of genes associated with cancer cell proliferation and survival; also recorded: inhibit genes associated with cancer cell proliferation and survival,–,–,–
